Each molecule was assayed on HIV-1 NL4-3 viral clone expressing Renilla luciferase (assay: microbe, parasite or virus in culture). Details: Human immunodeficiency virus 1, NL43, MT2, 96 h.
Format: cell-based
Procedure: Protocol for MT-2 Spread Assay
The present assay was used to screen candidate antiviral compounds by quantification of virus spread and production over several rounds of infection in vitro. MT-2, a HIV-1 permissive human T-cell line, was seeded in microtiter plates and was simultaneously treated with serially diluted compound and inoculated with a HIV-1 NL4-3 viral clone engineered to express Renilla luciferase in place of Net Following treatment, the culture was incubated for 96 hours. After the incubation, media was collected and used to estimate relative infectivity on the indicator cell line, TZM-bl. Additionally, viral spread was quantified by measuring luciferase activity via a commercially available luciferase substrate. In parallel, MT-2 cells were seeded and inoculated with mock virus in the presence of serially diluted compound. Compound toxicity was quantified 96 hours after treatment with AlamarBlue.
MT-2 (NIH Aids reagent program 237) cells were grown and maintained in an incubator at 37° C. with 5% CO2 using a basal medium of RPMI-1640 supplemented with 10% FBS. Cells were seeded in 100 μl at 2×10^4 cells/well in white walled 96-well microtiter plates. Candidate compounds were 3-fold serially diluted in the appropriate solvent. Solvent without compound was used as a no drug reference. Cells were inoculated at a multiplicity of 0.027 with an HIV-1 NL4-3 virus stock engineered to express Renilla luciferase in place of Net Diluted virus stock was first added to serially diluted compound. Compound and virus were delivered to cells in an equal volume (100 μl) and treated cultures were returned to the incubator for 96 hours. In parallel, plates for cytotoxicity estimates were prepared in the same way except cells were plated in clear walled 96-well microtiter plates and were mock infected.
At 96 hours post infection, 100 μl virus containing culture supernatant was collected from the treated and infected cultures and serially diluted in DMEM supplemented with 10% FBS, 1% sodium pyruvate, and 20 μg/ml DEAE dextran. One day prior, TZM-bl (ATCC PTA-5659) were cultured in basal medium of DMEM supplemented with 10% FBS and 1% sodium pyruvate and seeded at 7.5×10^3 cells/well in black walled 96-well microtiter plates. Diluted virus containing culture supernatant was transferred to TZM-bl cultures and incubated for 48 hours at 37° C. with 5% CO2. Infected TZM-bl cultures were fixed for 5 minutes with a 1% formaldehyde/0.2% gluteraldehyde/PBS solution then washed three times with PBS. Fixed cultures were incubated at 37° C. for 25 minutes with a 200 μg/ml MUG (4-Methylumbelliferyl β-D-[…])/DMEM solution. The reaction was stopped with an equal volume of 1M sodium carbonate and read at 360, 449 nm on fluorescence plate reader (Biotek).
At 96 hours post infection, 100 μl of culture supernatant was removed from the treated and infected cultures and EnduRen live cell substrate (Promega) was added at a final concentration 1.3 μg/ml. Cells were incubated for 1.5 hours at 37° C. with 5% CO2 then read on a luminescence plate reader (Biotek).
For all assays, data was imported into Accelrys Assay Explorer 3.3. In Assay Explorer, % inhibition (antiviral or cytotoxicity) was calculated using the solvent control as a reference by the following equation: 1−(SignalCompound/SignalReference). The % Inhibition and compound concentration data was fitted using the following 4-parameter logistic model (Assay Explorer model 42):
[formula] where X is compound concentration, Y is % inhibition, D is the maximum % Inhibition (constrained to 100%), C is IC50 value or inflection point, B is the hill slope, and A is the minimum % inhibition (constrained to 0%). The IC50 value is reported as the EC50 or CC50 depending on the assay endpoint. EC50 represents the effective concentration at which virus replication is inhibited by 50 percent. CC50 represents the concentration that results in the death of 50 percent of the host cells. […]

Row | SMILES | EC50
1 | CCCCN1CCc2cc(OCc3ccccc3)c(OC)cc2C1/C=C/c1ccc(OC)c(OCc2ccccc2)c1 (stereo not drawn) [Example G, 6-Benzyloxy-1-[(E)-2-(3-benzyloxy-4-methoxy-phenyl)vinyl]-2-butyl-7-methoxy-3,4-dihydro-1H-isoquinoline] | 5000 nM
2 | COc1cc2c(cc1OCc1ccccc1)CCNC2/C=C/c1ccc(-n2ccnc2)cc1 (stereo not drawn) [DK, (E)-1-(4-(1H-imidazol-1-yl)styryl)-6-(benzyloxy)-7-methoxy-1,2,3,4-tetrahydroisoquinoline] | 107 nM
3 | COc1ccc(/C=C/C2NCCc3cc(OCc4ccccc4)c(OC)cc32)c(OC)c1 (stereo not drawn) [AV, 6-Benzyloxy-1-[(E)-2-(2,4-dimethoxyphenyl)vinyl]-7-methoxy-1,2,3,4-tetrahydroisoquinoline] | 140 nM
4 | COc1ccc(/C=C/C2NCCc3cc(OCc4ccccc4)c(OC)cc32)cc1COCC(F)(F)F (stereo not drawn) [EO, 6-Benzyloxy-7-methoxy-1-[(E)-2-[4-methoxy-3-(2,2,2-trifluoroethoxymethyl)phenyl]vinyl]-1,2,3,4-tetrahydroisoquinoline] | 504 nM
5 | COc1cc(C)c(/C=C/C2NCCc3cc(OCc4ccccc4)c(OC)cc32)cc1OCCCC(=O)O (stereo not drawn) [BO, 4-[5-[(E)-2-(B-benzyloxy-7-methoxy-1,2,3,4-tetrahydroisoquinolin-1-yl)vinyl]-2-methoxy-4-methyl-phenoxy]butanoic acid] | 234 nM
6 | COc1cc(C)c(/C=C/C2NCCc3cc(OCc4ccccc4)c(OC)cc32)cc1C (stereo not drawn) [BV, 6-Benzyloxy-7-methoxy-1-[(E)-2-(4-methoxy-2,5-dimethyl-phenyl)vinyl]-1,2,3,4-tetrahydroisoquinoline] | 304 nM
7 | COc1cc2c(cc1OCc1ccccc1)CCNC2/C=C/c1cc2c(cc1C)OCCC2 (stereo not drawn) [CE, 6-Benzyloxy-7-methoxy-1-[(E)-2-(7-methylchroman-6-yl)vinyl]-1,2,3,4-tetrahydroisoquinoline] | 125 nM
8 | COc1cc2c(cc1OCc1ccccc1)CCNC2/C=C/c1cn(C(=O)OC(C)(C)C)c2ccccc12 (stereo not drawn) [CI, tert-Butyl 3-[(E)-2-(6-benzyloxy-7-methoxy-1,2,3,4-tetrahydroisoquinolin-1-yl)vinyl]indole-1-carboxylate] | 230 nM
9 | COc1cc2c(cc1OCc1ccccc1)CCNC2/C=C/c1ccccc1C(F)(F)F (stereo not drawn) [DA, (E)-6-(benzyloxy)-7-methoxy-1-(2-(trifluoromethyl)styryl)-1,2,3,4-tetrahydroisoquinoline] | 2340 nM
10 | COc1cc(C)c(/C=C/C2=NCCc3cc(OCc4ccccc4)c(OC)cc32)cc1OCc1ccccc1 [Example AE, 6-benzyloxy-1-[(E)-2-(5-benzyloxy-4-methoxy-2-methyl-phenyl)vinyl]-7-methoxy-3,4-dihydroisoquinoline] | 440 nM
11 | COc1ccc2cc(/C=C/C3NCCc4cc(OCc5ccccc5)c(OC)cc43)ccc2c1 (stereo not drawn) [DI, (E)-6-(benzyloxy)-7-methoxy-1-(2-(6-methoxynaphthalen-2-yl)vinyl)-1,2,3,4-tetrahydroisoquinoline] | 628 nM
12 | COc1cc(C)c(/C=C/C2NCCc3cc(OCc4ccccc4)c(OC)cc32)cc1OC (stereo not drawn) [Example AH, 6-benzyloxy-1-[(E)-2-(4,5-dimethoxy-2-methyl-phenyl)vinyl]-7-methoxy-1,2,3,4-tetrahydroisoquinoline] | 13.3 nM
13 | COc1ccc(/C=C/C2NCCc3cc(OCc4ccccc4)c(OC)cc32)cc1OC (stereo not drawn) [BQ, 6-Benzyloxy-1-[(E)-2-(3,4-dimethoxyphenyl)vinyl]-7-methoxy-1,2,3,4-tetrahydroisoquinoline] | 198 nM
14 | COCCCCOc1cc(OC)ccc1/C=C/C1NCCc2cc(OCc3ccccc3)c(OC)cc21 (stereo not drawn) [Example AI, (E)-6-(benzyloxy)-7-methoxy-1-(4-methoxy-2-(4-methoxybutoxy)styryl)-1,2,3,4-tetrahydroisoquinoline] | 1500 nM
15 | COc1cc(C)c(/C=C/C2c3cc(OC)c(OCc4ccccc4)cc3CCN2C(=O)c2ccncc2)cc1OCc1ccccc1 (stereo not drawn) [Example U, [6-benzyloxy-1-[(E)-2-(5-benzyloxy-4-methoxy-2-methyl-phenyl)vinyl]-7-methoxy-3,4-dihydro-1H-isoquinolin-2-yl]-(4-pyridyl)methanone] | 870 nM

From patent publication US10195189B2, “2-phenethenyltetrahydro isoquinolines useful as anti-HIV compounds” (priority 2014, dated 2019)
